Consider 3 compounds from paper PMC9186412, “Rational Framework for the Design of Trp- and Arg-Rich Peptide Antibiotics Against Multidrug-Resistant Bacteria” (Frontiers in Microbiology, 2022).

Where no end group is shown, it is not given here.

Data set [1] concerns ESKAPE pathogens and Escherichia coli. Conditions: ESKAPE pathogens and. How it is done:
Bacteria were incubated with each of the indicated peptides in MHB2. […] To assess bactericidal properties of the peptide, the assay was modified by using 15% fetal bovine serum (FBS, for a more physiologically relevant test condition) mixed with 25% MHB2 and 60% PBS. […] Data were analyzed using GraphPad Prism software.

Data set [2] has as its system human red blood cells (RBCs). As to conditions: at 16 μM; ref de Breij et al., 2018; cited from earlier work.
In the next data set the test system is CD-1 mice. Briefly: Mouse toxicity, maximum tolerated dose (IV). The data set is classed as in vivo. How it is done:
For all animal experiments, we used the protocol #18071776 approved by the Institutional Animal Care and Use Committee (IACUC) of the University of Pittsburgh, which is consistent with the NIH guide for the care and use of laboratory animals. In a preliminary (pilot) experiment, female CD-1 mice (three per group) weighing about 20 g were injected different doses of peptides up to 45mpk via a lateral tail vein (IV) to determine an MTD (dose that results in no apparent morbidity or mortality). To confirm the MTD determined in the pilot study, CD-1 mice (seven per group) were randomized to receive a dose based on the preliminary MTD (IV) or PBS (100 μL). The animals were monitored for up to 7 days for morbidity and survival.

In the case of `CC(C)C[C@H](NC(=O)[C@H](Cc1ccccc1)NC(=O)[C@@H]1CCCN1C(=O)[C@H](Cc1c[nH]c2ccccc12)NC(=O)[C@H](Cc1c[nH]c2ccccc12)NC(=O)[C@H](Cc1c[nH]c2ccccc12)NC(=O)[C@@H]1CCCN1C(=O)[C@H](Cc1ccccc1)NC(=O)[C@H](CCCNC(=N)N)NC(=O)[C@H](CCCNC(=N)N)NC(=O)[C@@H](N)C(C)C)C(=O)N[C@@H](CCCNC(=N)N)C(=O)N[C@@H](CCCNC(=N)N)C(=O)O` [tritrpticin], the “mean MIC” value in data set [1] is more than 10 µM.

As for “Ac-LKRVWKRVFKLLKRYWRQLKKPVR-NH2 [SAAP-148]”, in data set [2], the RBC lysis result was “moderate RBC lysis”. As for RRVWRWVRRVWRWVRR [E35], the % RBC lysis is 22%. The morbidity and mortality entry in the data set on CD-1 mice (7 CD-1 mice, 30 mpk systemically, monitored up to 7 days) is “no apparent morbidity and mortality”. In addition, the “tolerated systemic dose (maximum tolerated dose, MTD)” value in the data set with CD-1 mice (CD-1 mice, tail vein (IV), pilot with doses up to 45 mg/kg) is listed as “up to 30 mpk”.
